This is an account of results in patent US7160888B2, “[1,8]naphthyridin-2-ones and related compounds for the treatment of schizophrenia” (Warner Lambert Company LLC, priority 2003, dated 2007).

For orientation: Emax means the greatest response seen or fitted, relative to the assay's reference.

The structures appear in SMILES notation.

The target of the first test is D2 receptor (Homo sapiens, UniProt P14416). Description: [3H]Thymidine uptake assay for D2 intrinsic activity. Format: cell-based. Particulars: Table 1; test compound 1 μM; 1 μM Quinpirole = 100% intrinsic activity.
D2 receptor, sequence (P14416 whole entry): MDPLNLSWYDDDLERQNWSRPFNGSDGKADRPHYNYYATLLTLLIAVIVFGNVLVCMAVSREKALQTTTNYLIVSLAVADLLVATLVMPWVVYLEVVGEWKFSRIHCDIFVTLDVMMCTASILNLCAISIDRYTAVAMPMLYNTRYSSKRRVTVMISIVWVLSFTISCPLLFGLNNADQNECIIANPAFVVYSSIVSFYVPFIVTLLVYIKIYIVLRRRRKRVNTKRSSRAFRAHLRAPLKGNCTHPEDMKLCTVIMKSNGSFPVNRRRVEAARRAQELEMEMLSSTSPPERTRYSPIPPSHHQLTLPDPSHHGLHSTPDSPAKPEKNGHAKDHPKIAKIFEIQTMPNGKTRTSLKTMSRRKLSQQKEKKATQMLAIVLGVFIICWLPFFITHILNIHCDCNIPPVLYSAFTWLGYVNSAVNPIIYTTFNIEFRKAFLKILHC
Consider `O=C1CCc2cccc(N3CCN(CCCCOc4ccc5c(n4)NC(=O)CC5)CC3)c2C1` [Example A56, 7-{4-[4-(7-Oxo-5,6,7,8-tetrahydro-naphthalen-1-yl)-piperazin-1-yl]-butoxy}-3,4-dihydro-1H-[1,8]naphthyridin-2-one], for which the Emax at 1 µM turned out to be 29%.
For the compound `Cc1nc(OCCCCN2CCN(c3cccc4ccc(F)cc34)CC2)nc2[nH]c(=O)ccc12` [Example H10, 2-{4-[4-(7-Fluoro-naphthalen-1-yl)-piperazin-1-yl]-butoxy}-4-methyl-8H-pyrido[2,3-d]pyrimidin-7-one], the Emax at 1 µM was 44%.
The same measure, in the same setting: the value for `CCc1c(F)cccc1N1CCN(CCCCOc2ccc3c(n2)NC(=O)CC3)CC1` [Example A31, 7-{4-[4-(2-Ethyl-3-fluoro-phenyl)-piperazin-1-yl]-butoxy}-3,4-dihydro-1H-[1,8]naphthyridin-2-one] was 26%; that for `COc1ccc2cccc(N3CCN(CCCCOc4nc(C)c5ccc(=O)n(C)c5n4)CC3)c2c1` [Example H14, 2-{4-[4-(7-Methoxy-naphthalen-1-yl)-piperazin-1-yl]-butoxy}-4,8-dimethyl-8H-pyrido[2,3-d]pyrimidin-7-one] was 33%; that for `CC1(C)CCc2cccc(N3CCN(CCCCOc4ccc5c(n4)NC(=O)CC5)CC3)c2C1=O` [Example A52, 7-{4-[4-(7,7-Dimethyl-8-oxo-5,6,7,8-tetrahydro-naphthalen-1-yl)-piperazin-1-yl]-butoxy}-3,4-dihydro-1H-[1,8]naphthyridin-2-one] was 32%.
On the same count and under the same terms, the value for `COc1cccc(N2CCN(CCCCOc3ccc4ccc(=O)[nH]c4n3)CC2)c1Cl` [Example B18, 7-{4-[4-(2-Chloro-3-methoxy-phenyl)-piperazin-1-yl]-butoxy}-1H-[1,8]naphthyridin-2-one] was 32%.
Compound `CCOc1ccccc1N1CCN(CCCCOc2ccc3c(n2)NC(=O)CC3)CC1` [Example A20, 7-{4-[4-(2-Ethoxy-phenyl)-piperazin-1-yl]-butoxy}-3,4-dihydro-1H-[1,8]naphthyridin-2-one] had an Emax at 1 µM of 19%.
Compound `CC(=O)c1cccc2c(N3CCN(CCCCOc4ccc5c(n4)NC(=O)CC5)CC3)cccc12` [Example A80, 7-{4-[4-(5-Acetyl-naphthalen-1-yl)-piperazin-1-yl]-butoxy}-3,4-dihydro-1H-[1,8]naphthyridin-2-one] returned an Emax at 1 µM of 30%.
Turning to `O=C1CCc2ccc(OCCCCN3CCN(c4cccc5c(Cl)cccc45)CC3)nc2N1` [Example A75, 7-{4-[4-(5-Chloro-naphthalen-1-yl)-piperazin-1-yl]-butoxy}-3,4-dihydro-1H-[1,8]naphthyridin-2-one], the Emax at 1 µM was 36%.
`CCc1ccccc1N1CCN(CCCCOc2ccc3c(n2)NC(=O)CC3)CC1` [Example A35, 7-{4-[4-(2-Ethyl-phenyl)-piperazin-1-yl]-butoxy}-3,4-dihydro-1H-[1,8]naphthyridin-2-one] gave an Emax at 1 µM of 24%.
Same read-out and setting: the value for `O=C1CCc2ccc(OCCCCN3CCN(c4cc(Cl)ccc4Cl)CC3)nc2N1` [Example A12, 7-{4-[4-(2,5-Dichloro-phenyl)-piperazin-1-yl]-butoxy}-3,4-dihydro-1H-[1,8]naphthyridin-2-one] was 11%; that for `CC(C)COc1ccccc1N1CCN(CCCCOc2ccc3c(n2)NC(=O)CC3(C)C)CC1` [Example D24, 7-{4-[4-(2-Isobutoxy-phenyl)-piperazin-1-yl]-butoxy}-4,4-dimethyl-3,4-dihydro-1H-[1,8]naphthyridin-2-one] was 32%; that for `Cc1cc(OCCCCN2CCN(c3cccc4c3CCC4)CC2)nc2c1CCC(=O)N2` [Example E12, 7-[4-(4-Indan-4-yl-piperazin-1-yl)-butoxy]-5-methyl-3,4-dihydro-1H-[1,8]naphthyridin-2-one] was 39%.
The same measure, in the same setting: the value for `O=c1ccc2ccc(OCCCCN3CCN(c4cccc(F)c4Cl)CC3)nc2[nH]1` [Example B28, 7-{4-[4-(2-Chloro-3-fluoro-phenyl)-piperazin-1-yl]-butoxy}-1H-[1,8]naphthyridin-2-one] was 31%; that for `CC(=O)c1ccc(N2CCN(CCCCOc3ccc4ccc(=O)[nH]c4n3)CC2)c2ccccc12` [Example B65, 7-{4-[4-(4-Acetyl-naphthalen-1-yl)-piperazin-1-yl]-butoxy}-1H-[1,8]naphthyridin-2-one] was 10%.
On the same count and under the same terms, the value for `O=C1CCc2ccc(OCCCCN3CCN(c4cc(F)cc5c4CCCC5)CC3)nc2N1` [Example A50, 7-{4-[4-(3-Fluoro-5,6,7,8-tetrahydro-naphthalen-1-yl)-piperazin-1-yl]-butoxy}-3,4-dihydro-1H-[1,8]naphthyridin-2-one] was 14%; that for `CC(=O)c1ccc2cccc(N3CCN(CCCCOc4ccc5c(n4)NC(=O)CC5)CC3)c2c1` [Example A78, 7-{4-[4-(7-Acetyl-naphthalen-1-yl)-piperazin-1-yl]-butoxy}-3,4-dihydro-1H-[1,8]naphthyridin-2-one] was 24%; that for `CC1(C)Cc2ccc(CCCCCN3CCN(c4cccc(Cl)c4Cl)CC3)nc2NC1=O` [Example D12, 7-{5-[4-(2,3-Dichloro-phenyl)-piperazin-1-yl]-pentyl}-3,3-dimethyl-3,4-dihydro-1H-[1,8]naphthyridin-2-one] was 3%.
Turning to `O=C1CCc2ccc(OCCCCN3CCN(c4ccccc4C(F)(F)F)CC3)nc2N1` [Example A37, 7-{4-[4-(2-Trifluoromethyl-phenyl)-piperazin-1-yl]-butoxy}-3,4-dihydro-1H-[1,8]naphthyridin-2-one], the Emax at 1 µM is 46%.
`CC(C)Oc1ccccc1N1CCN(CCCCOc2ccc3ccc(=O)[nH]c3n2)CC1` [Example B10, 7-{4-[4-(2-Isopropoxy-phenyl)-piperazin-1-yl]-butoxy}-1H-[1,8]naphthyridin-2-one] returned an Emax at 1 µM of 34%.
Still for that read-out and setting: the value for `CC(C)(CCCN1CCN(c2cccc3ccccc23)CC1)Oc1ccc2c(n1)NC(=O)CC2` [Example C8, 7-[1,1-Dimethyl-4-(4-naphthalen-1-yl-piperazin-1-yl)-butoxy]-3,4-dihydro-1H-[1,8]naphthyridin-2-one] was 33%; that for `CCc1ccccc1N1CCN(CCCCOc2ccc3c(n2)NC(=O)CC3(C)C)CC1` [Example D23, 7-{4-[4-(2-Ethyl-phenyl)-piperazin-1-yl]-butoxy}-4,4-dimethyl-3,4-dihydro-1H-[1,8]naphthyridin-2-one] was 33%.
Still for that read-out and setting: the value for `O=C1COc2ccc(CCCCCN3CCN(c4cccc5c4CCCC5)CC3)nc2N1` [Example G2, 6-{5-[4-(5,6,7,8-Tetrahydro-naphthalen-1-yl)-piperazin-1-yl]-pentyl}-4H-pyrido[3,2-b][1,4]oxazin-3-one] was 6%.
`O=C1CCc2ccc(OCCCCN3CCN(c4cccc5cccc(Cl)c45)CC3)nc2N1` [Example A77, 7-{4-[4-(8-Chloro-naphthalen-1-yl)-piperazin-1-yl]-butoxy}-3,4-dihydro-1H-[1,8]naphthyridin-2-one] gave an Emax at 1 µM of 36%.
On the same count and under the same terms, the value for `CC(=O)c1cccc(N2CCN(CCCCOc3ccc4c(n3)NC(=O)CC4)CC2)c1` [Example A33, 7-{4-[4-(3-Acetyl-phenyl)-piperazin-1-yl]-butoxy}-3,4-dihydro-1H-[1,8]naphthyridin-2-one] was 31%.
Same read-out and setting: the value for `COc1ccc2cccc(N3CCN(CCCCOc4ccc5c(n4)NC(=O)CC5)CC3)c2c1` [Example A73, 7-{4-[4-(7-Methoxy-naphthalen-1-yl)-piperazin-1-yl]-butoxy}-3,4-dihydro-1H-[1,8]naphthyridin-2-one] was 23%; that for `CC(=O)c1ccccc1N1CCN(CCCCOc2ccc3c(n2)NC(=O)CC3)CC1` [Example A34, 7-{4-[4-(2-Acetyl-phenyl)-piperazin-1-yl]-butoxy}-3,4-dihydro-1H-[1,8]naphthyridin-2-one] was 8%.
On to `CC(CCCN1CCN(c2cccc(Cl)c2Cl)CC1)Oc1ccc2c(n1)NC(=O)CC2` (centres unmarked) [Example C5, 7-{4-[4-(2,3-Dichloro-phenyl)-piperazin-1-yl]-1-methyl-butoxy}-3,4-dihydro-1H-[1,8]naphthyridin-2-one], for which the Emax at 1 µM was found to be 40%.

The test is the same for the next values; noted with them: Table 2; test compound 1 μM; 1 μM Quinpirole = 100% intrinsic activity.
Compound `O=c1ccc2ccc(OCCCCN3CCN(c4cccc5ncc(F)cc45)CC3)nc2[nH]1` [Example B34′, 7-{4-[4-(3-Fluoro-quinolin-5-yl)-piperazin-1-yl]-butoxy}-1H-[1,8]naphthyridin-2-one] displayed an Emax at 1 µM of 35%.
Still for that read-out and setting: the value for `O=c1ccc2cnc(OCCCCN3CCN(c4cccc5c4OCC5)CC3)nc2[nH]1` [Example G4′, 2-{4-[4-(2,3-Dihydro-benzofuran-7-yl)-piperazin-1-yl]-butoxy}-8H-pyrido[2,3-d]pyrimidin-7-one] was 13%; that for `O=C1CCc2cc(F)c(OCCCCN3CCN(c4cccc5cnccc45)CC3)nc2N1` [Example D2′, 6-Fluoro-7-[4-(4-isoquinolin-5-yl-piperazin-1-yl)-butoxy]-3,4-dihydro-1H-[1,8]naphthyridin-2-one] was 40%; that for `O=C1CCc2ccc(OCCCCN3CCN(c4cccc5[nH]ccc45)CC3)nc2N1` [Example A25′, 7-{4-[4-(1H-Indol-4-yl)-piperazin-1-yl]-butoxy}-3,4-dihydro-1H-[1,8]naphthyridin-2-one] was 36%.
The same measure, in the same setting: the value for `CC1(C)CC(=O)Nc2nc(OCCCCN3CCN(c4cccc5c4NC(=O)CC5)CC3)ccc21` [Example C3′, 4,4-Dimethyl-7-{4-[4-(2-oxo-1,2,3,4-tetrahydro-quinolin-8-yl)-piperazin-1-yl]-butoxy}-3,4-dihydro-1H-[1,8]naphthyridin-2-one] was 19%; that for `CC1(C)CCc2cccc(N3CCN(CCCCOc4ncc5ccc(=O)[nH]c5n4)CC3)c2O1` [Example G6′, 2-{4-[4-(2,2-Dimethyl-chroman-8-yl)-piperazin-1-yl]-butoxy}-8H-pyrido[2,3-d]pyrimidin-7-one] was 17%.
Take `O=c1ccc2cnc(OCCCCN3CCN(c4cccc5c4OCC5)CC3)cc2[nH]1` [Example H6′, 7-{4-[4-(2,3-Dihydro-benzofuran-7-yl)-piperazin-1-yl]-butoxy}-1H-[1,6]naphthyridin-2-one]: the Emax at 1 µM turned out to be 21%.
